From ChEMBL document CHEMBL4765362, “Thirty Years of HDAC Inhibitors: 2020 Insight and Hindsight” (J Med Chem, 2020)

Experiments:
[1] = target: T1, Polyamine deacetylase HDAC10 (Homo sapiens, UniProt Q969S8); assay: Inhibition of HDAC10 (unknown origin) using p53 residues (379 to 382)(RHKK(Ac)-AMC) as substrate by fluorescent method
T1 sequence (Q969S8 whole entry): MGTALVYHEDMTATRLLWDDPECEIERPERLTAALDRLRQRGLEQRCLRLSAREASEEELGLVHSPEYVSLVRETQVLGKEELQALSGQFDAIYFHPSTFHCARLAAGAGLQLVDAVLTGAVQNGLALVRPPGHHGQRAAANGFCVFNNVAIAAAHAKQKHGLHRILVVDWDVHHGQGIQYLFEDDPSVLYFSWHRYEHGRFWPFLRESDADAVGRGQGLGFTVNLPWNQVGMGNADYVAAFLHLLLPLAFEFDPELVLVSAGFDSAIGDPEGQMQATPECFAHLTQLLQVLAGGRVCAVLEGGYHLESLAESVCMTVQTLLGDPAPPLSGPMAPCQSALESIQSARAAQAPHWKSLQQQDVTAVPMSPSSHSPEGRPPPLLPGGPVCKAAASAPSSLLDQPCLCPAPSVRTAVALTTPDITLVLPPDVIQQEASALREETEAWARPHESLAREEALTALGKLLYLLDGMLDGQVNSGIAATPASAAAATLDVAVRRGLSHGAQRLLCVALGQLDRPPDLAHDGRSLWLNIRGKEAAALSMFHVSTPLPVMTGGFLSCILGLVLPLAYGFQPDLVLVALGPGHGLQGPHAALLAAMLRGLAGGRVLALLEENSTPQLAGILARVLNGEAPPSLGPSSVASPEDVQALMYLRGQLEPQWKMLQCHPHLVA

[2] = target: T2, Protein deacetylase HDAC6 (Homo sapiens, UniProt Q9UBN7); assay: Inhibition of HDAC6 (unknown origin) using p53 residues (379 to 382)(RHKK(Ac)-AMC) as substrate by fluorescent method
T2 sequence (Q9UBN7 whole entry): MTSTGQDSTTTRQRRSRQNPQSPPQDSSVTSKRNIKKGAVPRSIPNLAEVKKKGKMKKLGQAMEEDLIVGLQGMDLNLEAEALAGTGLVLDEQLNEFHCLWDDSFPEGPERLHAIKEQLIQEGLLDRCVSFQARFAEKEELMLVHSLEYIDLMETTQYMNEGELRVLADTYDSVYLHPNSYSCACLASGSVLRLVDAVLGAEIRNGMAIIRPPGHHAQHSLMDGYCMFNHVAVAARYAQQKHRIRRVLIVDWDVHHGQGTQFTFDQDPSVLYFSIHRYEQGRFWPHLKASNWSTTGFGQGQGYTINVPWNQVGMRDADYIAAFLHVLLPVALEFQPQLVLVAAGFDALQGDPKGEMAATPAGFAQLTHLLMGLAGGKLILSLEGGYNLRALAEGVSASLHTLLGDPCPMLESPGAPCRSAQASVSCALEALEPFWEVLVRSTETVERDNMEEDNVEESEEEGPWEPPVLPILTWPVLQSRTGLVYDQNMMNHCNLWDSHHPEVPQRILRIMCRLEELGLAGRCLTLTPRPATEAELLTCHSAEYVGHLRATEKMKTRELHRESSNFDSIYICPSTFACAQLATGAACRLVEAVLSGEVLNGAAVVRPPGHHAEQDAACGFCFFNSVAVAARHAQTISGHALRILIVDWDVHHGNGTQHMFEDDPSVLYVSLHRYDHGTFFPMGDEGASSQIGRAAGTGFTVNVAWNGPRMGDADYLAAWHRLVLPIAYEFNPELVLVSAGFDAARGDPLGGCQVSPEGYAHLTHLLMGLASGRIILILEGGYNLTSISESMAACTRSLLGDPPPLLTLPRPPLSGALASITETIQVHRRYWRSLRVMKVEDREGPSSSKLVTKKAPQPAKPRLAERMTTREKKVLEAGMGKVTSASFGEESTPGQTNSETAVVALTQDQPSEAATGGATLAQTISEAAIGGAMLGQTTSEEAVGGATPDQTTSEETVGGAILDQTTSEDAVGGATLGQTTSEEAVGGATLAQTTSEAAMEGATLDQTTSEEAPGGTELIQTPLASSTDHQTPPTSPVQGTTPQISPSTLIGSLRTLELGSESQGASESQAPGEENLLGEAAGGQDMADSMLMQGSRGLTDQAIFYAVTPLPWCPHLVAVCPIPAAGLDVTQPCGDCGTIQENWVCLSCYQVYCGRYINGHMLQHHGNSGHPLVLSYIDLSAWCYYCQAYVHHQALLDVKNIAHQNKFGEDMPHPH

Histone deacetylase 2 = Histone deacetylase 2 (Homo sapiens, UniProt Q92769); assay: Inhibition of HDAC2 (unknown origin)
Chain of Histone deacetylase 2 (Q92769 whole entry): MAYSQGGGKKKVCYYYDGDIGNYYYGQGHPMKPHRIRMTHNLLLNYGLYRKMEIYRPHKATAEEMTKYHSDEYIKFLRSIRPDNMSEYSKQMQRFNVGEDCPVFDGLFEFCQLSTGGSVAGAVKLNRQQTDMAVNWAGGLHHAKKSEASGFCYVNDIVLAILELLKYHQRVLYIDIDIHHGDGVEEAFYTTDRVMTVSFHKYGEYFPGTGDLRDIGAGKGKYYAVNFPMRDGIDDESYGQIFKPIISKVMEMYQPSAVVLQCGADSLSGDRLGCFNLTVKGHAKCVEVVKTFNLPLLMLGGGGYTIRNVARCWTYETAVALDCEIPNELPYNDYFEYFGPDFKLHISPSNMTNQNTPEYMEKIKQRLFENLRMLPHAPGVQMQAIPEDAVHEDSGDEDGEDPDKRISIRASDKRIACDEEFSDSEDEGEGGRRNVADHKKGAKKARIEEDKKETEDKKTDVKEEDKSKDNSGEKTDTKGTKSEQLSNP

Histone deacetylase 9 = Histone deacetylase 9 (Homo sapiens, UniProt Q9UKV0); assay: Inhibition of HDAC9 (unknown origin)
Chain of Histone deacetylase 9 (Q9UKV0 whole entry): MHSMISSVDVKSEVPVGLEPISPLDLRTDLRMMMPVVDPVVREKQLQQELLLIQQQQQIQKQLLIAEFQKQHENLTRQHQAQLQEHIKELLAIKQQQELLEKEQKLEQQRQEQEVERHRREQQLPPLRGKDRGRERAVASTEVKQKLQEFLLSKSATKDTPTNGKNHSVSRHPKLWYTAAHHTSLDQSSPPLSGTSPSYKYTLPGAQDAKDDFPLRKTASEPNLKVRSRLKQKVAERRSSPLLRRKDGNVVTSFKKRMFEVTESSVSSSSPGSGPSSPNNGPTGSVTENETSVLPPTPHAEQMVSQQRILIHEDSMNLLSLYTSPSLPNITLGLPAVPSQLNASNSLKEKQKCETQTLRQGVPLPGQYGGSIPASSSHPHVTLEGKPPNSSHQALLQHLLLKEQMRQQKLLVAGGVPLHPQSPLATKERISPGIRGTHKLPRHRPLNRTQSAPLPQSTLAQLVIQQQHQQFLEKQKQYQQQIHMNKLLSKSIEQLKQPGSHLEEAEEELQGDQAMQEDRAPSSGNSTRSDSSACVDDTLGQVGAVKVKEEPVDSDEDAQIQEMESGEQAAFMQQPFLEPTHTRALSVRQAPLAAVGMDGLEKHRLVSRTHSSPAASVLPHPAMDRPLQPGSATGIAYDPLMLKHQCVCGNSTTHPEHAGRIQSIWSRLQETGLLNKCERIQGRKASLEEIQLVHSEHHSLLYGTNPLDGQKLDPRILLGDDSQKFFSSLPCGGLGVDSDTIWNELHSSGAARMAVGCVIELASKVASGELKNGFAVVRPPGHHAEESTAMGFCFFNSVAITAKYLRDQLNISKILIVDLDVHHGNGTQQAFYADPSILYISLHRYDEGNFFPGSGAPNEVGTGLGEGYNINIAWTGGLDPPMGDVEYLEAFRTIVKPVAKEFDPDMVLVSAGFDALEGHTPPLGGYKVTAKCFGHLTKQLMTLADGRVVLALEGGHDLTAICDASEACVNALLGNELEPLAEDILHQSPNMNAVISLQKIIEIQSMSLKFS

[3] = target: T2, Protein deacetylase HDAC6; assay: Inhibition of HDAC6 (unknown origin)
[4] = target: T1, Polyamine deacetylase HDAC10; assay: Inhibition of HDAC10 (unknown origin)

IC50 [1] | IC50 [2] | IC50 (Histone deacetylase 2) | IC50 (Histone deacetylase 9) | IC50 [3] | IC50 [4] | SMILES
> 10 µM | > 10 µM |  |  |  |  | Cn1cc(-c2ccc(S(=O)(=O)n3ccc(/C=C/C(=O)Nc4ccccc4N)c3)cc2)cn1 [DOMATINOSTAT]
 |  | > 10 µM | > 10 µM | > 10 µM | > 10 µM | CCCCCCCCCCCCCCCCNNC(=O)c1cccs1
